We go through 31 compounds from patent US8124760B2, “Pyridyl-triazolopyrimidine derivative or its salt, pesticide containing it and its production process” (Ishihara Sangyo Kaisha, Ltd., priority 2007, dated 2012).

Holding throughout (format): in vivo
The subject of assay [1] is Silverleaf Whitefly (Bemisia Argentifolii). Kind of assay: Test on controlling effects against silverleaf whitefly (cucumber seedling spray). To be noted: 168 h, hand spray to cucumber seedling, first-second instar nymphs, 7 days after the treatment, 25° C., read-out: protective value. How it is done: Test on Controlling Effects Against Silverleaf Whitefly (Bemisia Argentifolii) An insecticidal solution prepared to bring the concentration of the compound of the present invention to 200 ppm was applied by a hand spray to cucumber seedling planted in a pot on which first-second instar nymphs of silverleaf whitefly were parasitic, and dried in air. Thereafter, the cucumber seedling was left in a constant temperature chamber at 25° C. with lightening. The number of old instar nymphs was counted 7 days after the treatment, and the protective value (%) was obtained by the following equation. […] Protective value (%)=(1−((Ta×Cb)/(Tb×Ca)))×100 Ta: The number of old instar nymphs after the treatment at the treated cucumber seedling Tb: The number of first-second instar nymphs before the treatment at the treated cucumber seedling Ca: The number of old instar nymphs after the treatment at the untreated cucumber seedling Cb: the number of first-second instar nymphs before the treatment at the untreated cucumber seedling

In assay [2] the test system is Brown Planthopper (Nilaparvata lugens). Kind of assay: Test on controlling effects against brown planthopper (rice seedling dip). The source says: Test on Controlling Effects Against Brown Planthopper (Nilaparvata lugens)
Rice seedling was dipped for about 10 seconds in an insecticidal solution prepared to bring the concentration of the compound of the present invention to 200 ppm and then dried in air, its root was wrapped with a wet absorbent cotton, and the seedling was put into a test tube. Then, 10 second-third instar nymphs of Brown Planthopper were released therein, and the test tube was covered with a gauze and left in a constant temperature chamber at 25° C. with lightening. On the 5th day after the release, dead nymphs were counted, and the mortality was calculated by the following equation.

For assay [3], the system named is Green Peach Aphid (Myzus persicae). Kind of assay: Test on controlling effects against green peach aphid (leaf dip). The note with it: foliar, 120 h, Japanese radish leaf dipped about 10 seconds, first instar nymphs, 5 days after the treatment, 25° C. The source says:
Test on Controlling Effects Against Green Peach Aphid (Myzus persicae)
A Japanese radish leaf was inserted in a test tube in which water was put, and about 20 first instar nymphs of green peach aphid were released on the leaf. On the next day, the number of nymphs parasitic on the leaf was counted, and then the leaf was dipped for about 10 seconds in an insecticidal solution prepared to bring the concentration of the compound of the present invention to 200 ppm, dried in air and left in a constant temperature chamber at 25° C. with lightening. Dead nymphs were counted 5 days after the treatment, and the mortality was calculated by the following equation. The insects dropped from the leaf or presented toxic symptom were counted as dead insects. […] Mortality (%)=(1−(number of survived insects/number of treated insects))×100

The mark [4] stands for this setting: 200 ppm, rice seedling dipped about 10 seconds, second-third instar nymphs, 5th day after the release, 25° C., read-out: mortality.

Each structure is given as a SMILES string. Read-outs that look alike come from different tables or passages of the source.

Regarding `Fc1cc(C(F)(F)F)cnc1-c1ccnc2ncnn12` [compound 5], the pest or weed control at 200 ppm in assay [1] is at least 80%.

For `O=[N+]([O-])c1cc(C(F)(F)F)cnc1-c1ccnc2ncnn12` [compound 12], the pest or weed control at 200 ppm in assay [1] is at least 80%. In addition, the mortality at 200 ppm in assay [2] (setting [4]) is at least 90%. On to `N#Cc1cc(C(F)(F)F)cnc1-c1ccnc2ncnn12` [compound 14], for which the pest or weed control at 200 ppm in assay [1] is at least 80%. With `Cc1cc(-c2ncc(C(F)(F)F)cc2Br)n2ncnc2n1` [compound 15], the pest or weed control at 200 ppm in assay [1] is at least 80%. Moreover, the mortality at 200 ppm in assay [3] and in assay [2] (setting [4]) was at least 90% throughout.

As to `CCCc1cc(-c2ncc(C(F)(F)F)cc2Cl)n2ncnc2n1` [compound 17], the pest or weed control at 200 ppm in assay [1] was at least 80%. The mortality at 200 ppm in assay [3] and in assay [2] (setting [4]) was at least 90% each time. In the case of `Cc1cc(-c2ccc(C(F)(F)F)cn2)n2ncnc2n1` [compound 18], the pest or weed control at 200 ppm in assay [1] was at least 80%. Also, the mortality at 200 ppm in assay [3] was at least 90%. Take `Cc1cc(-c2ncc(C(F)(F)F)cc2I)n2ncnc2n1` [compound 41]: the mortality at 200 ppm in assay [3] and in assay [2] (setting [4]) was at least 90% each time.

Consider `Cc1cc(-c2ncc(C(F)(F)F)cc2C#N)n2ncnc2n1` [compound 43], for which the mortality at 200 ppm in assay [3] and in assay [2] (setting [4]) was at least 90% each time.

For `Cc1cc(-c2ncc(C(F)(F)F)cc2C)n2ncnc2n1` [compound 44], the pest or weed control at 200 ppm in assay [1] was at least 80%. In addition, the mortality at 200 ppm in assay [3] and in assay [2] (setting [4]) was at least 90% in each case. In turn, `Cc1cc(-c2cc(C(F)(F)F)cc(C(F)(F)F)n2)n2ncnc2n1` [compound 51] came in with a mortality at 200 ppm in assay [3] of at least 90%. With `Cc1cc(-c2ncc(C(F)(F)F)cc2-c2ccccc2)n2ncnc2n1` [compound 52], in assay [2] (setting [4]), the mortality at 200 ppm is at least 90%. As for `Cc1cc(-c2ncc(Cl)cc2C(F)(F)F)n2ncnc2n1` [compound 57], the mortality at 200 ppm in assay [2] (setting [4]) is at least 90%.

Consider `Cc1cc(-c2nc(Cl)c(C(F)(F)F)cc2Cl)n2ncnc2n1` [compound 68], for which the mortality at 200 ppm in assay [3] and in assay [2] (setting [4]) was at least 90% in each case.

`N#Cc1cc(-c2ncc(C(F)(F)F)cc2Cl)n2ncnc2n1` [compound 70]: in assay [2] (setting [4]), the mortality at 200 ppm was at least 90%. As to `Cc1cc(-c2ncc(C(F)(F)F)cc2[N+](=O)[O-])n2ncnc2n1` [compound 78], in assay [3], the mortality at 200 ppm was at least 90%. As to `CCc1cc(C(F)(F)F)cnc1-c1cc(C)nc2ncnn12` [compound 79], the mortality at 200 ppm in assay [3] and in assay [2] (setting [4]) was at least 90% each time. For the compound `CC(C)c1cc(-c2ncc(C(F)(F)F)cc2Cl)n2ncnc2n1` [compound 80], the pest or weed control at 200 ppm in assay [1] was at least 80%. Further, the mortality at 200 ppm in assay [3] and in assay [2] (setting [4]) was at least 90% each time.

As to `CCCCc1cc(-c2ncc(C(F)(F)F)cc2Cl)n2ncnc2n1` [compound 83], the mortality at 200 ppm in assay [2] (setting [4]) is at least 90%.

`CC(C)(C)c1cc(-c2ncc(C(F)(F)F)cc2Cl)n2ncnc2n1` [compound 89]: in assay [2] (setting [4]), the mortality at 200 ppm was at least 90%. `FC(F)(F)c1cnc(-c2cc(-c3ccco3)nc3ncnn23)c(Cl)c1` [compound 91] displayed a mortality at 200 ppm in assay [2] of at least 90%. As to `FC(F)(F)c1cnc(-c2cc(C3CC3)nc3ncnn23)c(Br)c1` [compound 94], the pest or weed control at 200 ppm in assay [1] is at least 80%. Besides, the mortality at 200 ppm in assay [3] and in assay [2] (setting [4]) was at least 90% each time.

As for `CC1(c2cc(-c3ncc(C(F)(F)F)cc3Cl)n3ncnc3n2)CC1` [compound 98], in assay [2] (setting [4]), the mortality at 200 ppm was at least 90%. For the compound `FC(F)(F)c1cnc(-c2cc(C3CCC3)nc3ncnn23)c(Cl)c1` [compound 99], the mortality at 200 ppm in assay [2] (setting [4]) is at least 90%. The same measure, in the same setting: with `Cc1cc(-c2nc(Cl)c(C(F)(F)F)cc2F)n2ncnc2n1` [compound 105] the figure was at least 90%. In the case of `FC(F)(F)c1cnc(-c2cc(C3CCCC3)nc3ncnn23)c(Cl)c1` [compound 107], the mortality at 200 ppm in assay [2] (setting [4]) is at least 90%. With `FC(F)(F)c1cnc(-c2ccnc3ncnn23)c(Br)c1` [compound No. 4, 7-(3-bromo-5-(trifluoromethyl)pyridin-2-yl)-[1,2,4]triazolo[1,5-a]pyrimidine], the pest or weed control at 200 ppm in assay [1] was at least 80%. Besides, the mortality at 200 ppm in assay [3] and in assay [2] (setting [4]) was at least 90% each time. With `CCc1cc(-c2ncc(C(F)(F)F)cc2Cl)n2ncnc2n1` [compound No. 16, 7-(3-chloro-5-(trifluoromethyl)pyridin-2-yl)-5-ethyl-[1,2,4]triazolo[1,5-a]pyrimidine], the pest or weed control at 200 ppm in assay [1] was at least 80%. The mortality at 200 ppm in assay [3] and in assay [2] (setting [4]) was at least 90% each time.

As to `Cc1cc(-c2ncc(C(F)(F)F)cc2Cl)n2ncnc2n1` [compound No. 19, 7-(3-chloro-5-(trifluoromethyl)pyridin-2-yl)-5-methyl-[1,2,4]triazolo[1,5-a]pyrimidine], the pest or weed control at 200 ppm in assay [1] was at least 80%. The mortality at 200 ppm in assay [3] and in assay [2] (setting [4]) was at least 90% throughout. On to `FC(F)(F)c1cnc(-c2cc(C(F)(F)F)nc3ncnn23)c(Cl)c1` [compound No. 20, 7-(3-chloro-5-(trifluoromethyl)pyridin-2-yl)5-(trifluoromethyl)-[1,2,4]triazolo[1,5-a]pyrimidine], for which, in assay [1], the pest or weed control at 200 ppm was at least 80%. Moreover, the mortality at 200 ppm in assay [3] and in assay [2] (setting [4]) was at least 90% in each case. Consider `FC(F)(F)c1cnc(-c2cc(C3CC3)nc3ncnn23)c(Cl)c1` [compound No. 82, 7-(3-chloro-5-(trifluoromethyl)pyridin-2-yl)-5-cyclopropyl-[1,2,4]triazolo[1,5-a]pyrimidine], for which the pest or weed control at 200 ppm in assay [1] is at least 80%. The mortality at 200 ppm in assay [3] and in assay [2] (setting [4]) was at least 90% each time. In the case of `CC(C)c1cc(-c2ncc(C(F)(F)F)cc2Br)n2ncnc2n1` [compound No. 95, 7-(3-bromo-5-(trifluoromethyl)pyridin-2-yl)-5-isopropyl-[1,2,4]triazolo[1,5-a]pyrimidine], the mortality at 200 ppm in assay [3] and in assay [2] (setting [4]) was at least 90% throughout.
